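Briefly, cells in 96-well plates were exposed to five compound concentrations for 48 h, and endpoints were estimated by linear interpolation. The concentration for 50% growth inhibition is given as GI50. The concentration for full growth arrest is given as TGI.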
Experiments:
Experiment in all cases: NCI anticancer screen, dose series, 48 h
786-0 renal = test system: 786-0 renal
A498 renal = test system: A498 renal
A549 NSCLC = test system: A549 NSCLC
ACHN renal = test system: ACHN renal
BT-549 breast = test system: BT-549 breast
CAKI-1 renal = test system: CAKI-1 renal
CCRF-CEM leukemia = test system: CCRF-CEM leukemia
COLO 205 colon = test system: COLO 205 colon
DU-145 prostate = test system: DU-145 prostate
EKVX NSCLC = test system: EKVX NSCLC
HCC-2998 colon = test system: HCC-2998 colon
HCT-116 colon = test system: HCT-116 colon
HCT-15 colon = test system: HCT-15 colon
HL-60(TB) leukemia = test system: HL-60(TB) leukemia
HOP-62 NSCLC = test system: HOP-62 NSCLC
HOP-92 NSCLC = test system: HOP-92 NSCLC
HS 578T breast = test system: HS 578T breast
HT29 colon = test system: HT29 colon
IGROV1 ovarian = test system: IGROV1 ovarian
K-562 leukemia = test system: K-562 leukemia
KM12 colon = test system: KM12 colon
LOX IMVI melanoma = test system: LOX IMVI melanoma
M14 melanoma = test system: M14 melanoma
MALME-3M melanoma = test system: MALME-3M melanoma
MCF7 breast = test system: MCF7 breast
MDA-MB-231 breast = test system: MDA-MB-231 breast
MDA-MB-435 = test system: MDA-MB-435
MOLT-4 leukemia = test system: MOLT-4 leukemia
NCI-H226 lung = test system: NCI-H226 lung
NCI-H23 lung = test system: NCI-H23 lung
NCI-H460 lung = test system: NCI-H460 lung
NCI-H522 lung = test system: NCI-H522 lung
NCI/ADR-RES ovarian = test system: NCI/ADR-RES ovarian
OVCAR-4 ovarian = test system: OVCAR-4 ovarian
OVCAR-5 ovarian = test system: OVCAR-5 ovarian
OVCAR-8 ovarian = test system: OVCAR-8 ovarian
PC-3 prostate = test system: PC-3 prostate
RPMI-8226 leukemia = test system: RPMI-8226 leukemia
RXF 393 renal = test system: RXF 393 renal
SF-268 CNS = test system: SF-268 CNS
SF-295 CNS = test system: SF-295 CNS
SF-539 CNS = test system: SF-539 CNS
SK-MEL-2 melanoma = test system: SK-MEL-2 melanoma
SK-MEL-28 melanoma = test system: SK-MEL-28 melanoma
SK-MEL-5 melanoma = test system: SK-MEL-5 melanoma
SK-OV-3 ovarian = test system: SK-OV-3 ovarian
SN12C renal = test system: SN12C renal
SNB-19 CNS = test system: SNB-19 CNS
SNB-75 CNS = test system: SNB-75 CNS
SW-620 colon = test system: SW-620 colon
T-47D breast = test system: T-47D breast
TK-10 renal = test system: TK-10 renal
U251 CNS = test system: U251 CNS
UACC-257 melanoma = test system: UACC-257 melanoma
UACC-62 melanoma = test system: UACC-62 melanoma
UO-31 renal = test system: UO-31 renal

CS(=O)(=O)Nc1cc(-c2ccc3ncc(C#N)c(Nc4cccc(Cl)c4F)c3c2)cnc1Cl
GI50 (786-0 renal): 366 nM | TGI (786-0 renal): 3.55 µM | GI50 (A498 renal): 93.7 nM | TGI (A498 renal): 471 nM | GI50 (A549 NSCLC): 763 nM | TGI (A549 NSCLC): 2840 nM | GI50 (ACHN renal): 591 nM | TGI (ACHN renal): 21.2 µM | GI50 (BT-549 breast): 56 nM | TGI (BT-549 breast): 959 nM | GI50 (CAKI-1 renal): 72.9 nM | TGI (CAKI-1 renal): 1590 nM | GI50 (CCRF-CEM leukemia): 90.6 nM | TGI (CCRF-CEM leukemia): > 39.9 µM | GI50 (COLO 205 colon): 219 nM | TGI (COLO 205 colon): 955 nM | GI50 (DU-145 prostate): 289 nM | TGI (DU-145 prostate): 5.46 µM | GI50 (EKVX NSCLC): 367 nM | TGI (EKVX NSCLC): 2630 nM | GI50 (HCC-2998 colon): 507 nM | TGI (HCC-2998 colon): 2190 nM | GI50 (HCT-116 colon): 66.5 nM | TGI (HCT-116 colon): 1140 nM | GI50 (HCT-15 colon): 111 nM | TGI (HCT-15 colon): 2870 nM | GI50 (HL-60(TB) leukemia): 94 nM | GI50 (HOP-62 NSCLC): 198 nM | TGI (HOP-62 NSCLC): 7.8 µM | GI50 (HOP-92 NSCLC): 21.9 nM | TGI (HOP-92 NSCLC): 348 nM | GI50 (HS 578T breast): 56.7 nM | TGI (HS 578T breast): 537 nM | GI50 (HT29 colon): 329 nM | TGI (HT29 colon): 2320 nM | GI50 (IGROV1 ovarian): 101 nM | TGI (IGROV1 ovarian): 869 nM | GI50 (K-562 leukemia): 115 nM | TGI (K-562 leukemia): > 100 µM | GI50 (KM12 colon): 324 nM | TGI (KM12 colon): 2090 nM | GI50 (LOX IMVI melanoma): 107 nM | TGI (LOX IMVI melanoma): 641 nM | GI50 (M14 melanoma): 308 nM | TGI (M14 melanoma): 3.58 µM | GI50 (MALME-3M melanoma): 68.3 nM | TGI (MALME-3M melanoma): 708 nM | GI50 (MCF7 breast): 64.3 nM | TGI (MCF7 breast): 4.03 µM | GI50 (MDA-MB-231 breast): 333 nM | TGI (MDA-MB-231 breast): 2310 nM | GI50 (MDA-MB-435): 277 nM | TGI (MDA-MB-435): 3 µM | GI50 (MOLT-4 leukemia): 82.3 nM | TGI (MOLT-4 leukemia): 1580 nM | GI50 (NCI-H226 lung): 556 nM | TGI (NCI-H226 lung): 11.1 µM | GI50 (NCI-H23 lung): 158 nM | TGI (NCI-H23 lung): 9.36 µM | GI50 (NCI-H460 lung): 391 nM | TGI (NCI-H460 lung): 10.9 µM | GI50 (NCI-H522 lung): 255 nM | TGI (NCI-H522 lung): 2670 nM | GI50 (NCI/ADR-RES ovarian): 1250 nM | TGI (NCI/ADR-RES ovarian): 20.7 µM | GI50 (OVCAR-4 ovarian): 495 nM | TGI (OVCAR-4 ovarian): 8.09 µM | GI50 (OVCAR-5 ovarian): 749 nM | TGI (OVCAR-5 ovarian): 3.92 µM | GI50 (OVCAR-8 ovarian): 369 nM | TGI (OVCAR-8 ovarian): 4.23 µM | GI50 (PC-3 prostate): 260 nM | TGI (PC-3 prostate): 3.6 µM | GI50 (RPMI-8226 leukemia): 94.7 nM | TGI (RPMI-8226 leukemia): 1170 nM | GI50 (RXF 393 renal): 76.8 nM | TGI (RXF 393 renal): 910 nM | GI50 (SF-268 CNS): 87.6 nM | TGI (SF-268 CNS): 1810 nM | GI50 (SF-295 CNS): 267 nM | TGI (SF-295 CNS): 3.25 µM | GI50 (SF-539 CNS): 181 nM | TGI (SF-539 CNS): 2860 nM | GI50 (SK-MEL-2 melanoma): 29.2 nM | TGI (SK-MEL-2 melanoma): 177 nM | GI50 (SK-MEL-28 melanoma): 189 nM | TGI (SK-MEL-28 melanoma): 2820 nM | GI50 (SK-MEL-5 melanoma): 49.2 nM | TGI (SK-MEL-5 melanoma): 182 nM | GI50 (SK-OV-3 ovarian): 360 nM | TGI (SK-OV-3 ovarian): 2610 nM | GI50 (SN12C renal): 152 nM | TGI (SN12C renal): 39.4 µM | GI50 (SNB-19 CNS): 288 nM | TGI (SNB-19 CNS): 3.11 µM | GI50 (SNB-75 CNS): < 13.1 nM | TGI (SNB-75 CNS): 395 nM | GI50 (SW-620 colon): 73.3 nM | TGI (SW-620 colon): 1820 nM | GI50 (T-47D breast): 101 nM | TGI (T-47D breast): 4.79 µM | GI50 (TK-10 renal): 84.7 nM | TGI (TK-10 renal): 926 nM | GI50 (U251 CNS): 59.1 nM | TGI (U251 CNS): 1280 nM | GI50 (UACC-257 melanoma): 400 nM | TGI (UACC-257 melanoma): 4.54 µM | GI50 (UACC-62 melanoma): 120 nM | TGI (UACC-62 melanoma): 1580 nM | GI50 (UO-31 renal): 205 nM | TGI (UO-31 renal): 2920 nM
